Results on four compounds are retold here after patent US4277479A, “Tetrazolylalkoxycarbostyril derivatives and pharmaceutical compositions containing them” (Otsuka Pharmaceutical Co., Ltd., priority 1978, dated 1981).

The test system of the assay is cerebral blood flow, bastard dog. In words: Increasing effect of cerebral blood flow in anesthetized dog. Format: in vivo. Conditions: Canis lupus familiaris, iv, through profunda femoris vein, dog; for change in vivo at 0.3 mg/kg: dosage 300 μg/kg. The method, then:
(Test of increasing effect of cerebral blood flow)
Thus, a bastard dog (male, 12-20 kg of body weight) was fixed in a prone (position) and was anesthetized with […] of pentobarbital sodium and forced to breathe at a frequency of respiration of 20 times/minute. Then, the skull was bared and the surface bone was removed to expose the venous sinus by using a grinder and the venous blood was taken out from the venas which was cannulizated. The amount of venous blood flow was measured by using an electromagnetic blood flow meter and next measured by using drop-counter to measure the number of drops of blood per 10 seconds.
The increasing effect of cerebral blood flow was calculated by comparing the number of blood drops in 30 seconds at the peak of increasement shown before and after the administration of compound to be tested. Each of the compounds to be tested was dissolved in dimethylformamide and diluted with physiological saline solution and administered through a cannule being inserted into the profunda femoris vein.

Structures are written as SMILES.

`O=c1ccc2cc(OCCCc3nnnn3C3CCCCCCC3)ccc2[nH]1` [Compound 6, 6-[3-(1-Cyclooctyltetrazol-5-yl)propoxy]carbostyril] gave a change in vivo at 0.3 mg/kg of 75.3%.
In the case of `O=c1ccc2cc(OCCCc3nnnn3CC3CCCCC3)ccc2[nH]1` [Compound 5, 6-[3-(1-Cyclohexylmethyltetrazol-5-yl)propoxy]carbostyril], the change in vivo at 0.3 mg/kg amounted to 71%.
As for `O=c1ccc2cc(OCCCc3nnnn3C3CCCCC3)ccc2[nH]1` [Compound 1, 6-[3-(1-Cyclohexyltetrazol-5-yl)propoxy]carbostyril], the change in vivo at 0.3 mg/kg worked out at 72.2%. Besides, the change in vivo at 0.03 mg/kg (dosage 30 μg/kg) was 36.9%.
`O=c1ccc2cc(OCCCCc3nnnn3C3CCCCC3)ccc2[nH]1` [Compound 7, 6-[4-(1-Cyclohexyltetrazol-5-yl)butoxy]carbostyril] came in with a change in vivo at 0.3 mg/kg of 68.4%.
